Measurements taken from PubChem BioAssay AID1996.
Converted amounts (≈) assume the structure as drawn.

conditions: buffer; pH 7.4; 200.0 µM

Compared with `O=C(OCC(=O)N1CCCCCC1)c1ccc([N+](=O)[O-])cc1Cl`, `CC(C)(C)c1ccc(C(=O)NC(=S)N2CCCCCC2)cc1` is 5-fold lower in solubility kinetic: 50 µg/mL (≈ 147 µM) for the first, 10.1 µg/mL (≈ 31.7 µM) for the second.

Going from `O=C(c1ccccc1)c1ccc(-n2ccnc2)c([N+](=O)[O-])c1` to `O=C(c1ccccc1)N1C(=O)C(c2ccccc2)Oc2ccccc21` (stereo not given), the solubility kinetic falls from 34.4 µg/mL (≈ 117 µM) to 3.1 µg/mL (≈ 9.41 µM) (11-fold).

Going from `Cc1cc(-c2onc(C)c2C(=O)Oc2ccc(Cl)cc2)no1` to `COc1ccc2[nH]c(C(=O)Nc3cccc(C)n3)cc2c1`, the solubility kinetic rises from 0.5 µg/mL (≈ 1.57 µM) to 1.9 µg/mL (≈ 6.75 µM) (3.8-fold).

Going from `NS(=O)(=O)c1cccc(NC(=O)c2cccc(N3C(=O)c4ccccc4C3=O)c2)c1` to `CC(=O)Nc1ccc(/C=C2\CCc3ccccc3C2=O)cc1`, the solubility kinetic falls from 12.2 µg/mL (≈ 28.9 µM) to 1.2 µg/mL (≈ 4.12 µM) (10-fold).

First: CN1/C(=C/C=C(C#N)C#N)C=Cc2ccccc21
Second: COc1ccccc1N1C(=O)C2C3C=CC(CC3)C2C1=O (stereo not given)
The solubility kinetic of the first is 28-fold lower: 1.1 µg/mL (≈ 4.72 µM) for the first, 30.7 µg/mL (≈ 108 µM) for the second.

`Cc1ccc(NS(=O)(=O)c2cc(N)ccc2Cl)c(C)c1` and `Cc1nnc(NS(=O)(=O)c2ccc(N)cc2)s1` cannot be ordered by solubility kinetic: 43.5 µg/mL (≈ 140 µM) for the first, greater than 40.5 µg/mL for the second.

Going from `O=CNCc1nc2ccccc2n1CCc1ccccc1` to `CCC(=O)Nc1nc2ccccc2n1Cc1ccccc1Cl`, the solubility kinetic falls from greater than 41.9 µg/mL to 1.7 µg/mL (≈ 5.42 µM).

Going from `O=C(Nc1ccncc1)c1c(Cl)cccc1Cl` to `CSc1ncc(Cl)c(C(=O)Nc2cccc(Cl)c2)n1`, the solubility kinetic falls from 8.9 µg/mL (≈ 33.3 µM) to 1.1 µg/mL (≈ 3.5 µM) (8.1-fold).

Compared with `CC(C)(C)NC(=O)c1ccccc1NC(=O)c1ccc2c(c1)OCO2`, `COc1ccccc1NC(=O)c1ccc2nsnc2c1` is 7.5-fold higher in solubility kinetic: 5.3 µg/mL (≈ 15.6 µM) for the first, 39.6 µg/mL (≈ 139 µM) for the second.

`NC(=O)C1CCCN(C(=O)c2ccc3c(c2)NC(=O)CS3)C1` (stereo not given) and `CN(C)c1ccc(CN2CCC(C(N)=O)CC2)cc1.O=C(O)C(=O)O` cannot be ordered by solubility kinetic: greater than 47.9 µg/mL for the first, greater than 52.7 µg/mL for the second.

`O=C(NCc1ccc(Cl)cc1)N1CCc2ccccc2C1` and `CC(=O)Oc1ccc(C(=O)Nc2cccc3c2CCCC3)cc1` are within 1.5-fold of each other in solubility kinetic: 4.5 µg/mL (≈ 15 µM) for the first, 3.4 µg/mL (≈ 11 µM) for the second.

Going from `COc1ccc(C(=O)OCC(=O)Nc2sccc2C(N)=O)cc1OC` to `COc1ccc(N(C)S(=O)(=O)c2cccc(C(=O)OCC(=O)c3c(N)n(C)c(=O)n(C)c3=O)c2)cc1`, the solubility kinetic rises from 1 µg/mL (≈ 2.74 µM) to 3.2 µg/mL (≈ 6.2 µM) (3.2-fold).

`OCC1CCCCN1C(=S)Nc1cccc(Cl)c1` (stereo not given) and `CCC(C)N(C)C1CCN(C(=S)Nc2cccc(SC)c2)CC1` (stereo not given) cannot be ordered by solubility kinetic: greater than 42.7 µg/mL for the first, greater than 52.7 µg/mL for the second.

First: CCN(CC(=O)Nc1ccc(NC(C)=O)cc1)S(=O)(=O)/C=C/c1ccccc1
Second: CC(=O)Nc1ccc(NC(=O)CCOc2cc(C)ccc2C)cc1
The solubility kinetic of the first is 4.8-fold higher: 9.6 µg/mL (≈ 23.9 µM) for the first, 2 µg/mL (≈ 6.13 µM) for the second.

Going from `CCOC(=O)c1c(N)sc2c1CCN(CCc1ccccc1)C2` to `Cc1cccc(NC(=O)COC(=O)CCc2ccccc2)c1C`, the solubility kinetic falls from 31.7 µg/mL (≈ 95.9 µM) to 5.9 µg/mL (≈ 18.9 µM) (5.4-fold).

First: Nc1nc2nc(-c3ccccc3)cc(C(F)(F)F)c2s1
Second: O=C(Nc1ccccc1C(F)(F)F)c1ccccc1Br
The solubility kinetic of the first is 9.7-fold lower: 4.1 µg/mL (≈ 13.9 µM) for the first, 39.8 µg/mL (≈ 116 µM) for the second.

First: CC(C)Oc1ccc(C2CC(=O)NC2=O)cc1 (stereo not given)
Second: Nc1ccc(OCCc2ccccc2)cc1
The solubility kinetic of the first is higher: greater than 35 µg/mL for the first, 28.3 µg/mL (≈ 133 µM) for the second.

`O=C(Nc1cccc(S(=O)(=O)N2CCOCC2)c1)C1CC1` and `O=C(N1CCOCC1)N1CCN(S(=O)(=O)c2ccc(F)cc2)CC1` cannot be ordered by solubility kinetic: greater than 46.6 µg/mL for the first, greater than 53.6 µg/mL for the second.

Compared with `Cc1c(N=Cc2cc3c(cc2[N+](=O)[O-])OCO3)cccc1[N+](=O)[O-]`, `Nc1ncc([N+](=O)[O-])c(Oc2ccccc2F)n1` is higher in solubility kinetic: 6.5 µg/mL (≈ 19.7 µM) for the first, greater than 37.5 µg/mL for the second.

First: O=C(CSc1ncccn1)NC1CCS(=O)(=O)C1 (stereo not given)
Second: Cc1coc2cc3oc(=O)c(CCC(=O)NC4CC4)c(C)c3cc12
The solubility kinetic of the first is 2.4-fold higher: 39.7 µg/mL (≈ 138 µM) for the first, 16.7 µg/mL (≈ 51.3 µM) for the second.

Going from `CNc1nc2c(C)cccn2c(=O)c1C=Nc1ccc(OC)cc1` to `COc1ccc2c(c1)-c1nc(/N=C/c3cccc(OC)c3O)sc1CC2`, the solubility kinetic rises from 0.9 µg/mL (≈ 2.79 µM) to greater than 55 µg/mL.

Compared with `Br.CC(C)(C)c1ccc(C2=CSC3=NCCN23)cc1`, `CC(=O)c1ccc(-c2ccc(C(=O)NC3CCCCCC3)o2)cc1` is 7.4-fold lower in solubility kinetic: 49.4 µg/mL for the first, 6.7 µg/mL (≈ 20.6 µM) for the second.

Compared with `COc1cccc(C(=O)NCCNC(=O)c2cnccn2)c1`, `CC(=O)Nc1ccc2c(c1)nc(CCNC(=O)c1ccco1)n2C` is 1.6-fold higher in solubility kinetic: 30.9 µg/mL (≈ 103 µM) for the first, 48.2 µg/mL (≈ 148 µM) for the second.

`NC(=O)CSc1nc2ccccc2c(=O)n1-c1ccccc1` and `CC(NC(=O)COc1ccccc1Cl)c1ccccc1` (stereo not given) cannot be ordered by solubility kinetic: greater than 46.7 µg/mL for the first, greater than 43.5 µg/mL for the second.

`CC1CCCN(C(=O)COC(=O)Cn2cnc3ccccc32)C1` (stereo not given) and `CN(CC(O)COc1ccc2ccccc2c1)C1CCCCC1.Cl` (stereo not given) cannot be ordered by solubility kinetic: greater than 47.3 µg/mL for the first, greater than 52.5 µg/mL for the second.

Compared with `Cc1[nH]c2ccccc2c1C(=O)COc1ccccc1F`, `Cc1ccc(S(=O)(=O)NC(=O)c2ccccc2F)cc1` is higher in solubility kinetic: 1.6 µg/mL (≈ 5.65 µM) for the first, greater than 44 µg/mL for the second.

First: CCOC(=O)/C=C/C(=O)Nc1ccc(Oc2ccccc2)cc1
Second: CC(C)N(Cc1ccc(F)cc1)C(=O)c1cc2ccccc2oc1=O
The solubility kinetic of the first is 4.7-fold higher: 3.8 µg/mL (≈ 12.2 µM) for the first, 0.8 µg/mL (≈ 2.36 µM) for the second.

First: COc1ccc(CN2CC[C@@H](N3CCOCC3)[C@H](O)C2)cc1F
Second: Cc1cc2oc(=O)cc(CN3CCC(C)CC3)c2cc1C
The solubility kinetic of the first is 11-fold higher: 43.3 µg/mL (≈ 133 µM) for the first, 4.1 µg/mL (≈ 14.4 µM) for the second.

Compared with `O=C(Nc1ccccn1)c1ccc(Cl)s1`, `C/C(=N\Nc1nccnc1Cl)c1ccc(F)cc1` is higher in solubility kinetic: 30.9 µg/mL (≈ 129 µM) for the first, greater than 39.7 µg/mL for the second.

First: Cc1ccc(CC(=O)NCC2CCCCC2)cc1
Second: Cc1cccc(-n2c(-c3ccc(Br)o3)n[nH]c2=S)c1
The solubility kinetic of the first is lower: 9.3 µg/mL (≈ 37.9 µM) for the first, greater than 50.4 µg/mL for the second.
